{"source": "PubChem BioAssay AID1996", "data": [{"details": "buffer; pH 7.4; 200.0 µM", "units": {"solubility kinetic": "µg/mL"}, "values": [{"smiles": "CN(CC(=O)Nc1ccccc1Cl)CC(=O)Nc1cccc2ccccc12", "solubility kinetic": 45.3}, {"smiles": "O=C(CSc1ccc(Cl)cc1)NCc1ccco1", "solubility kinetic": 16.3}, {"smiles": "COc1ccc(C2/C(=C(/O)c3ccc(F)cc3)C(=O)C(=O)N2CCCN2CCOCC2)cc1OC", "note": "(centres undefined)", "solubility kinetic": "> 72.7"}, {"smiles": "c1cncc(-c2noc(-c3ccc4ccccc4c3)n2)c1", "solubility kinetic": "< 0.2"}, {"smiles": "NS(=O)(=O)c1ccc(CNC(=O)Cc2cccs2)cc1", "solubility kinetic": 45.1}, {"smiles": "CC(=O)c1ccc(N2CCN(C(C)C(=O)Nc3ccc4c(c3)OCCO4)CC2)cc1", "note": "(centres undefined)", "solubility kinetic": 5.1}, {"smiles": "CCC(=NCc1cccnc1)c1c(O)n(-c2ccccc2C)c(=O)[nH]c1=O", "solubility kinetic": "> 54.7"}, {"smiles": "COc1ccc(OC)c(C2=NOC(C(=O)NCc3cccnc3)C2)c1", "note": "(centres undefined)", "solubility kinetic": 47.8}, {"smiles": "Cc1ccc(Nc2cc(C)nc3ccccc23)c(C)c1", "solubility kinetic": "> 39.4"}, {"smiles": "COc1cc(C(N)=O)cc(Cl)c1OC", "solubility kinetic": "> 32.3"}, {"smiles": "CCn1c(C)c(C)c2cc(C(=O)NC3CCCCCC3)ccc21", "solubility kinetic": 0.5}, {"smiles": "Cc1cc(C)c(S(=O)(=O)NCCCn2ccnc2)cc1C", "solubility kinetic": "> 46.1"}, {"smiles": "CC(C)c1ccc(OCC(=O)Nc2ccncc2)cc1", "solubility kinetic": 38.8}, {"smiles": "COc1ccc(C2(C)NC(=O)N(CC(=O)NCC(=O)Nc3ccc(F)c(F)c3F)C2=O)cc1OC", "note": "(centres undefined)", "solubility kinetic": 0.5}, {"smiles": "COc1cccc(/C=C/C(=O)OCC(=O)NCc2ccc3c(c2)OCO3)c1", "solubility kinetic": 3.3}, {"smiles": "O=C(NC1CCCCC1)[C@@H]1CSC2c3ccccc3C(=O)N21", "note": "(some centres undefined)", "solubility kinetic": 47}, {"smiles": "Clc1ccc(-c2ncc3ccccn23)c(Cl)c1", "solubility kinetic": 22.5}, {"smiles": "NS(=O)(=O)c1cccc(NC(=O)COC(=O)/C=C/c2nc3ccccc3s2)c1", "solubility kinetic": 22.8}, {"smiles": "CC(C)N(C(=O)COC(=O)CCC(=O)c1cccs1)c1ccccc1", "solubility kinetic": "> 53.9"}, {"smiles": "COc1ccc(NC(C)=O)cc1CP(=O)(c1ccccc1)c1ccccc1", "solubility kinetic": "> 56.9"}, {"smiles": "Cc1nc([N+](=O)[O-])cn1CC(O)c1ccc(F)cc1", "note": "(centres undefined)", "solubility kinetic": "> 39.8"}, {"smiles": "Cc1ccccc1C(=O)N1CCC(C(=O)Nc2nccs2)CC1", "solubility kinetic": 46.7}, {"smiles": "COc1ccccc1/C=C/C(=O)OCC(=O)NC1CCS(=O)(=O)C1", "note": "(centres undefined)", "solubility kinetic": "> 53"}, {"smiles": "CCOC(=O)N1CCN(C(=O)c2cc3ccccc3o2)CC1", "solubility kinetic": "> 45.3"}, {"smiles": "Nc1cc(C(=O)OCC(=O)N2CCOCC2)ccc1Cl", "solubility kinetic": "> 44.8"}, {"smiles": "Cc1ccccc1NC(=O)C(=O)NCCCN1CCOCC1", "solubility kinetic": "> 45.8"}, {"smiles": "O=C(OCC(=O)N1CCc2ccccc21)c1ccc(Br)o1", "solubility kinetic": 3.7}, {"smiles": "Nc1cc(=O)[nH]c(SCC(=O)Nc2ccc(S(=O)(=O)N3CCCC3)cc2)n1", "solubility kinetic": "> 61.4"}, {"smiles": "O=C(/C=C/c1ccccc1)Oc1ccccc1C(=S)N1CCOCC1", "solubility kinetic": 18.9}, {"smiles": "O=C(CN1C(=O)C(=O)N(Cc2ccco2)C1=O)Nc1ccccc1", "solubility kinetic": "> 49.1"}, {"smiles": "CC12CC(O)C3c4ccc(O)cc4CCC3C1CC/C2=N\\O", "note": "(centres undefined)", "solubility kinetic": "> 45.2"}, {"smiles": "Cc1[nH]c2ccccc2c1SCC(=O)N1CCC(C)CC1", "solubility kinetic": "> 45.4"}, {"smiles": "O=S(=O)(Nc1ccc2ccccc2n1)c1ccc2c(c1)CCO2", "solubility kinetic": 45.9}, {"smiles": "CCNc1c([N+](=O)[O-])c(=O)n(CC)c2ccccc12", "solubility kinetic": 34.1}, {"smiles": "Cc1onc(-c2ccccc2Cl)c1C(=O)N1CCCC1", "solubility kinetic": "> 43.6"}, {"smiles": "O=C(NCCCNC(=O)c1ccco1)c1ccc(Cl)cc1", "solubility kinetic": "> 46"}, {"smiles": "Cc1cccc(C)c1Nc1ncnc2ccccc12.Cl", "solubility kinetic": "> 42.9"}, {"smiles": "Cc1ccc2c(C(=O)CN3CCN(C(=O)c4ccco4)CC3)c(C)[nH]c2c1", "solubility kinetic": 14.6}, {"smiles": "CCOC(=O)c1cnc(COc2ccccc2Cl)[nH]c1=O", "solubility kinetic": "> 46.3"}, {"smiles": "CCCC(=O)c1cc2c(cc1NC(=O)c1ccccc1F)OCCO2", "solubility kinetic": "< 0.7"}, {"smiles": "CN(CC(=O)N1CCCCC1)S(=O)(=O)c1ccc(Cl)cc1", "solubility kinetic": 47.5}, {"smiles": "O=C(O)CSCC(=O)N1CCCCC1", "solubility kinetic": "> 32.6"}, {"smiles": "Cc1cccc(NC(=O)c2ccccc2NC(=O)c2ccco2)c1", "solubility kinetic": 0.5}, {"smiles": "O=C(Nc1ccc(OC(F)(F)F)cc1)c1ccc2c(c1)no[n+]2[O-]", "solubility kinetic": 1.1}, {"smiles": "Cc1ccc(NS(=O)(=O)c2ccc3[nH]c(=O)[nH]c3c2)cc1", "solubility kinetic": 5.4}, {"smiles": "COc1cccc(C2(O)C(=O)Nc3ccccc32)c1", "note": "(centres undefined)", "solubility kinetic": "> 38.3"}, {"smiles": "CN(C)c1nc(OCc2ccccc2)c2ncc(=O)[nH]c2n1", "solubility kinetic": 1.2}, {"smiles": "O=C(NCCCO)C(=O)c1c(-c2ccccc2)cc2ccccn12", "solubility kinetic": "> 48.4"}, {"smiles": "Cc1ccc(S(=O)(=O)N2CCCCC2)c2nsnc12", "solubility kinetic": 31.9}, {"smiles": "C=CCNc1nc(N)c([N+](=O)[O-])c(Nc2cccc(Cl)c2)n1", "solubility kinetic": 0.1}, {"smiles": "Cc1ccc(S(=O)(=O)N(C)C(C)CCc2ccco2)cc1", "note": "(centres undefined)", "solubility kinetic": 26.2}, {"smiles": "O=C(Nc1ccc(F)cc1)Nc1cccc(Br)c1", "solubility kinetic": 0.7}, {"smiles": "C=CCN(c1ccccc1)S(=O)(=O)c1cccc2cccnc12", "solubility kinetic": 34.9}, {"smiles": "Cc1cc(C)c(OCCCON2C(=O)CCC2=O)c(Br)c1", "solubility kinetic": "> 53.4"}, {"smiles": "CCCCCC(=O)OC(CN1CCCC1=O)C[NH+]1CCCCCC1.[Cl-]", "note": "(centres undefined)", "solubility kinetic": "> 56.2"}, {"smiles": "O=c1[nH]c(O)c(C=NCCc2ccccc2)c(=O)[nH]1", "solubility kinetic": 3.6}, {"smiles": "COc1ccc2oc(-c3ccccc3)c(C(=O)N(C)C)c2c1", "solubility kinetic": "> 44.3"}, {"smiles": "COc1ccc(CCNC(=O)c2cnc(C)cn2)cc1", "solubility kinetic": "> 40.7"}, {"smiles": "C=CCn1c(=S)[nH]c2cc(-c3ccccc3)sc2c1=O", "solubility kinetic": "< 0.3"}]}]}
